Laboratory results published in ChEMBL document CHEMBL4219053, “Antiobesity and emetic effects of a short-length peptide YY analog and its PEGylated and alkylated derivatives” (Bioorg Med Chem, 2018).

Key:
[1] = target: T1, Neuropeptide Y receptor type 2 (Homo sapiens, UniProt P49146); assay: Displacement of [125I]-PYY from human neuropeptide Y2 receptor expressed in CHO cell membranes incubated for 60 mins by TopCount micro scintillation analysis
T1 sequence (P49146 whole entry): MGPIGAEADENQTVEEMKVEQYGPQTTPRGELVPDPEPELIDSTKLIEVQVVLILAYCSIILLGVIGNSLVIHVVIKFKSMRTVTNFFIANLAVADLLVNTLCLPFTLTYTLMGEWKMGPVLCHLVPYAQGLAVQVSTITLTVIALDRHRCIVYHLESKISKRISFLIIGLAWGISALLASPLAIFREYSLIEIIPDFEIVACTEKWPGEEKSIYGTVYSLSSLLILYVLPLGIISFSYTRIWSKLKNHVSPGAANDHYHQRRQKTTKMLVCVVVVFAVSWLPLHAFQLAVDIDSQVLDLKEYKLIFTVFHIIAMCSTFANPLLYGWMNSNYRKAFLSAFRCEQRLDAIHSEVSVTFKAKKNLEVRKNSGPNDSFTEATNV

Mus musculus [2] = assay: Anorectic activity in C57BL/6J mouse assessed as inhibition of food intake at 30 nmol/kg, sc qd for 3 days relative to control; assay type: functional; conditions: 72 h
Mus musculus [3] = assay: Antiobesity activity in DIO C57BL/6J mouse assessed as reduction in body weight at 30 nmol/kg, sc qd for 2 weeks; assay type: functional; parameters: scale not given: the % may be the effect or the level left
[4] = Solubility of the compound in water; assay type: physicochemical; conditions: buffer
[5] = Tmax in C57BL/6J mouse at 10 nmol/kg, sc by LC-MS/MS analysis; assay type: ADME, organism-based; conditions: in vivo
Mus musculus [6] = assay: Antiobesity activity in DIO C57BL/6J mouse assessed as reduction in body weight at 10 nmol/kg, sc qd for 2 weeks; assay type: functional; parameters: scale not given: the % may be the effect or the level left
[7] = AUC (0 to 48 hrs) in C57BL/6J mouse at 10 nmol/kg, sc by LC-MS/MS analysis; assay type: ADME, organism-based; parameters: dose 10 nmol/kg, time < 48 hr, route subcutaneous; conditions: in vivo
Mus musculus [8] = assay: Antiobesity activity in DIO C57BL/6J mouse assessed as reduction in body weight at 3 nmol/kg, sc qd for 2 weeks; assay type: functional; parameters: scale not given: the % may be the effect or the level left
[9] = Mean residence time in C57BL/6J mouse at 10 nmol/kg, sc by LC-MS/MS analysis; assay type: ADME, organism-based; conditions: in vivo
[10] = Tmax in Beagle dog at 3 nmol/kg, sc; assay type: ADME, organism-based, Canis lupus familiaris; conditions: in vivo
[11] = Cmax in C57BL/6J mouse at 10 nmol/kg, sc by LC-MS/MS analysis; assay type: ADME, organism-based; parameters: dose 10 nmol/kg, route subcutaneous; conditions: in vivo
[12] = Cmax in Beagle dog at 3 nmol/kg, sc; assay type: ADME, organism-based, Canis lupus familiaris; parameters: dose 3 nmol/kg, route subcutaneous; conditions: in vivo

Row | Structure (SMILES) | IC50 [1] [nM] | inhibition in vivo at 0.03 µmol/kg (Mus musculus [2]) [%] | Activity (Mus musculus [3]) [%] | further results
1 | CC[C@](C)(NC(=O)[C@H]1C[C@H](O)CN1C(=O)[C@H](CO)NC(=O)COCC(=O)NCCCOCCOCCOCCCNC(=O)CC[C@H](NC(=O)[C@H]1CC[C@H](CNC(=O)CCCCCCCCCCCCCCCCCCC(=O)O)CC1)C(=O)O)C(=O)N[C@@H](Cc1ccncc1)C(=O)N[C@@H](CC1CCCCC1)C(=O)N[C@@H](CC(C)(C)C)C(=O)N[C@@H](CC(N)=O)C(=O)N[C@@H](CCCCN)C(=O)NC(C)(C)C(=O)N[C@H](C(=O)N[C@@H](CCCNC(=N)N)C(=O)N[C@@H](CCC(N)=O)C(=O)N[C@@H](CCCNC(=N)N)C(=O)N[C@@H](CC1CCCCC1)C(N)=O)[C@@H](C)O | 13 | 47.8 | -15.1 | –
2 | CCCCCCCCCCCCCCCC(=O)NC[C@H]1CC[C@H](C(=O)N[C@@H](CCC(=O)NCCCOCCOCCOCCCNC(=O)COCC(=O)NCCCC[C@H](N)C(=O)NCCCC[C@H](NC(=O)[C@H](CC(N)=O)NC(=O)C(C)(C)NC(=O)[C@H](CC2CCCCC2)NC(=O)[C@H](Cc2ccncc2)NC(=O)[C@H](CCCNC(=N)N)NC(=O)[C@H]2C[C@H](O)CN2C(=O)[C@H](CO)NC(=O)c2c[nH]cn2)C(=O)NC(C)(C)C(=O)N[C@H](C(=O)N[C@@H](CCCNC(=N)N)C(=O)N[C@@H](CCC(N)=O)C(=O)N[C@@H](CCCNC(=N)N)C(=O)N[C@@H](CC2CCCCC2)C(N)=O)[C@@H](C)O)C(=O)O)CC1 | 0.19 | 36 | – | –
3 | CC[C@](C)(NC(=O)[C@H]1C[C@H](O)CN1C(=O)[C@H](CO)NC(=O)COCC(=O)NCCCOCCOCCOCCCNC(=O)CC[C@H](NC(=O)[C@H]1CC[C@H](CNC(=O)CCCCCCCCCCCCCCCCCCC(=O)O)CC1)C(=O)O)C(=O)N[C@@H](Cc1ccncc1)C(=O)N[C@@H](CC1CCCCC1)C(=O)N[C@@H](CC(C)(C)C)C(=O)N[C@@H](CC(N)=O)C(=O)N[C@@H](CCCCNC(=O)C1CCNCC1)C(=O)NC(C)(C)C(=O)N[C@H](C(=O)N[C@@H](CCCNC(=N)N)C(=O)N[C@@H](CCC(N)=O)C(=O)N[C@@H](CCCNC(=N)N)C(=O)N[C@@H](CC1CCCCC1)C(N)=O)[C@@H](C)O | 7.6 | 52.8 | -22.3 | –
4 | CCCCCCCCCCCCCCCC(=O)NC[C@H]1CC[C@H](C(=O)N[C@@H](CCC(=O)NCCCOCCOCCOCCCNC(=O)COCC(=O)N[C@@H](CO)C(=O)N2C[C@@H](O)C[C@@H]2C(=O)N[C@@H](CCCNC(=N)N)C(=O)N[C@@H](Cc2ccncc2)C(=O)N[C@@H](CC2CCCCC2)C(=O)NC(C)(C)C(=O)N[C@@H](CC(N)=O)C(=O)N[C@@H](CCCCNC(=O)C2CCNCC2)C(=O)NC(C)(C)C(=O)N[C@H](C(=O)N[C@@H](CCCNC(=N)N)C(=O)N[C@@H](CCC(N)=O)C(=O)N[C@@H](CCCNC(=N)N)C(=O)N[C@@H](CC2CCCCC2)C(N)=O)[C@@H](C)O)C(=O)O)CC1 | 0.19 | 68.3 | – | Tmax [5]: 1 h; Activity (Mus musculus [6]): -19%; AUC(0-t) at 48 h [7]: 0.0122 µM·h; Activity (Mus musculus [8]): -18.4%; MRT [9]: 1.7 h; Tmax [10]: 2.5 h; Cmax [11]: 3.6 nM; Cmax [12]: 0.9 nM
5 | C[C@@H](O)[C@H](NC(=O)C(C)(C)NC(=O)[C@H](CCCCNC(=O)C1CCNCC1)NC(=O)[C@H](CC(N)=O)NC(=O)C(C)(C)NC(=O)[C@H](CC1CCCCC1)NC(=O)[C@H](Cc1ccncc1)NC(=O)[C@H](CCCNC(=N)N)NC(=O)[C@H]1C[C@H](O)CN1C(=O)[C@H](CO)NC(=O)COCC(=O)NCCCOCCOCCOCCCNC(=O)CC[C@H](NC(=O)[C@H]1CC[C@H](CNC(=O)CCCCCCCCCCCCCCCCCCC(=O)O)CC1)C(=O)O)C(=O)N[C@@H](CCCNC(=N)N)C(=O)N[C@@H](CCC(N)=O)C(=O)N[C@@H](CCCNC(=N)N)C(=O)N[C@@H](CC1CCCCC1)C(N)=O | 4.5 | 67.3 | -17.2 | Activity (Mus musculus [6]): -11.6%

The next lines start with results.

Row | IC50 [1] [nM] | Structure (SMILES) | inhibition in vivo at 0.03 µmol/kg (Mus musculus [2]) [%] | Activity (Mus musculus [3]) [%] | further results
6 | 24 | CC[C@](C)(NC(=O)[C@H]1C[C@H](O)CN1C(=O)[C@H](CO)NC(=O)c1c[nH]cn1)C(=O)N[C@@H](Cc1ccncc1)C(=O)N[C@@H](CC1CCCCC1)C(=O)N[C@@H](CC(C)(C)C)C(=O)N[C@@H](CC(N)=O)C(=O)N[C@@H](CCCCNC(=O)COCC(=O)NCCCOCCOCCOCCCNC(=O)CC[C@H](NC(=O)[C@H]1CC[C@H](CNC(=O)CCCCCCCCCCCCCCCCCCC(=O)O)CC1)C(=O)O)C(=O)NC(C)(C)C(=O)N[C@H](C(=O)N[C@@H](CCCNC(=N)N)C(=O)N[C@@H](CCC(N)=O)C(=O)N[C@@H](CCCNC(=N)N)C(=O)N[C@@H](CC1CCCCC1)C(N)=O)[C@@H](C)O | 30 | – | –
7 | 7.6 | CC[C@](C)(NC(=O)[C@H]1C[C@H](O)CN1C(=O)[C@H](CO)NC(=O)COCC(=O)NCCCOCCOCCOCCCNC(=O)CC[C@H](NC(=O)[C@H]1CC[C@H](CNC(=O)CCCCCCCCCCCCCCCCCCC(=O)O)CC1)C(=O)O)C(=O)N[C@@H](Cc1ccncc1)C(=O)N[C@@H](CC1CCCCC1)C(=O)N[C@@H](CC(C)(C)C)C(=O)N[C@@H](CC(N)=O)C(=O)N[C@@H](CCCCNC(C)=O)C(=O)NC(C)(C)C(=O)N[C@H](C(=O)N[C@@H](CCCNC(=N)N)C(=O)N[C@@H](CCC(N)=O)C(=O)N[C@@H](CCCNC(=N)N)C(=O)N[C@@H](CC1CCCCC1)C(N)=O)[C@@H](C)O | 43 | -6.1 | –
8 | 3.4 | C[C@@H](O)[C@H](NC(=O)C(C)(C)NC(=O)[C@H](CCCCNC(=O)[C@@H](N)CCCCNC(=O)COCC(=O)NCCCOCCOCCOCCCNC(=O)CC[C@H](NC(=O)[C@H]1CC[C@H](CNC(=O)CCCCCCCCCCCCCCCCCCC(=O)O)CC1)C(=O)O)NC(=O)[C@H](CC(N)=O)NC(=O)[C@H](CC(C)(C)C)NC(=O)[C@H](CC1CCCCC1)NC(=O)[C@H](Cc1ccncc1)NC(=O)[C@H](CCCNC(=N)N)NC(=O)[C@H]1C[C@H](O)CN1C(=O)[C@H](CO)NC(=O)c1c[nH]cn1)C(=O)N[C@@H](CCCNC(=N)N)C(=O)N[C@@H](CCC(N)=O)C(=O)N[C@@H](CCCNC(=N)N)C(=O)N[C@@H](CC1CCCCC1)C(N)=O | 58 | -23.1 | solubility [4]: Soluble
9 | 13 | CC[C@](C)(NC(=O)[C@H]1C[C@H](O)CN1C(=O)[C@H](CO)NC(=O)c1c[nH]cn1)C(=O)N[C@@H](Cc1ccncc1)C(=O)N[C@@H](CC1CCCCC1)C(=O)N[C@@H](CC(C)(C)C)C(=O)N[C@@H](CC(N)=O)C(=O)N[C@@H](CCCCNC(=O)[C@@H](N)CCCCNC(=O)COCC(=O)NCCCOCCOCCOCCCNC(=O)CC[C@H](NC(=O)[C@H]1CC[C@H](CNC(=O)CCCCCCCCCCCCCCCCCCC(=O)O)CC1)C(=O)O)C(=O)NC(C)(C)C(=O)N[C@H](C(=O)N[C@@H](CCCNC(=N)N)C(=O)N[C@@H](CCC(N)=O)C(=O)N[C@@H](CCCNC(=N)N)C(=O)N[C@@H](CC1CCCCC1)C(N)=O)[C@@H](C)O | 67 | – | solubility [4]: Insoluble
